Results from patent US20250230151A1, “COMPOUNDS FOR CANCERS DRIVEN BY BRAF MUTATION” (THE BOARD OF TRUSTEES OF THE UNIVERSITY OF ILLINOIS, priority 2021, published 2025).
Read-outs that look alike come from different tables or passages of the source.

What was measured:
[1] = system: HCT116 cells; test: 72-hour cell viability assay (Alamar Blue), HCT116; assay type: cell-based
Procedure: (§1) Cell Culture and reagents. All cell lines were grown in a 37° C., 5% CO2, humidified environment, in media containing 1% penicillin/streptomycin. Cell culture conditions are as follows: MDCK cells transfected with MDR1 (or ABCB1) were obtained from the Netherlands Cancer Institute (Amsterdam, The Netherlands) and maintained in DMEM with 10% fetal bovine serum (FBS, Gemini). Traditional cell lines A375, CHL-1, B16F10, and U118MG were grown in DMEM with 10% FBS, SK-MEL-28, U87 and T98G in EMEM with 10% FBS, AM-38 in EMEM with 20% HI-FBS (Gibco), HT29 in McCoy's 5A with 10% FBS, HCT116 in RPMI with 10% FBS. Compounds were dissolved in DMSO (1% final concentration, Sigma-Aldrich) for cell culture studies.
(§2) Cell viability assays. Cells were harvested, seeded in a 96-well plate and allowed to adhere overnight. Compound was added to each well in DMSO (1% final concentration). Cells were incubated for 72 hours before viability was assessed by the Alamar Blue Assay. Raptinal ([…]) was used as a dead control.

[2] = system: B16F10 cells; test: 72-hour cell viability assay (Alamar Blue), B16F10; assay type: cell-based
Procedure: as §1, §2

[3] = system: SK-MEL-28 cells; test: 72-hour cell viability assay (Alamar Blue), SK-MEL-28; assay type: cell-based; details: melanoma
Procedure: as §1, §2

[4] = Blood-brain barrier penetrance, brain and serum levels after single IV injection; assay type: in vivo; details: CD-1, mouse, 60 min after single 25 mg/kg IV injection, read-out: brain-to-serum ratio
Procedure: Blood-brain barrier penetrance P-gp in vivo assays. All experimental procedures were reviewed and approved by the University of Illinois Institutional Animal Care and Use Committee (Protocol number: 19191). CD-1 mice were purchased from Charles River and acclimated for 4-7 days before use. Mice were administered elacridar or its vehicle at 2.5 mg/kg via lateral tail vein injection. Thirty-minutes post injection, mice were then treated with compounds at 25 mg/kg intravenously now in the other tail vein. At each time point, mice were sacrificed and blood was collected by lacerating the right auricle with iris scissors. An 18-gauge angiocatheter was inserted through the left ventricle, and all residual circulatory volume was removed by perfusing 0.9% saline solution via an analog peristaltic pump. Brains were harvested from the cranial vault and flash frozen. Blood samples were centrifuged at 13,000 ref for 10 minutes and the supernatant serum was stored at −80° C. until analysis. Brain samples were homogenized in ice-cold methanol and centrifuged first at 2000 ref for three minutes and then 13,000 ref for ten minutes and supernatant and tissue debris were separated and stored at −80° C. The resultant supernatant and serum were analyzed by LC-MS/MS to determine compound concentrations. […] All compounds were administered at 5 mL/kg.

[5] = biological target: T1, P-gp (Homo sapiens, UniProt P08183); test: MDR1-MDCK P-gp transwell bidirectional transport assay; assay type: in vitro ADME; details: for Papp A→B at 90 min, 10 µM / Papp B→A at 90 min, 10 µM / efflux ratio at 90 min, 10 µM / Papp at 90 min, 10 µM: dog; for Papp A→B at 90 min, 10 µM / Papp B→A at 90 min, 10 µM / efflux ratio at 90 min, 10 µM: MDCK-MDR1, MDR1-MDCK; for efflux ratio at 90 min, 10 µM: read-out: ER (efflux ratio) (converted); for Papp at 90 min, 10 µM: MDCK-MDR1, range of Papp A-B to B-A, read-out: cell culture permeabilities; for ER (efflux ratio) / Papp A-B / Papp B-A: MDR1-MDCK; for Papp A→B at 90 min, 10 µM / Papp B→A at 90 min, 10 µM / efflux ratio at 90 min, 10 µM / ER (efflux ratio) / Papp A-B / Papp B-A: 10 μM, 90 min
T1 construct: host or cells: MDCK (MDR1-MDCK)
T1 sequence (P08183 whole entry): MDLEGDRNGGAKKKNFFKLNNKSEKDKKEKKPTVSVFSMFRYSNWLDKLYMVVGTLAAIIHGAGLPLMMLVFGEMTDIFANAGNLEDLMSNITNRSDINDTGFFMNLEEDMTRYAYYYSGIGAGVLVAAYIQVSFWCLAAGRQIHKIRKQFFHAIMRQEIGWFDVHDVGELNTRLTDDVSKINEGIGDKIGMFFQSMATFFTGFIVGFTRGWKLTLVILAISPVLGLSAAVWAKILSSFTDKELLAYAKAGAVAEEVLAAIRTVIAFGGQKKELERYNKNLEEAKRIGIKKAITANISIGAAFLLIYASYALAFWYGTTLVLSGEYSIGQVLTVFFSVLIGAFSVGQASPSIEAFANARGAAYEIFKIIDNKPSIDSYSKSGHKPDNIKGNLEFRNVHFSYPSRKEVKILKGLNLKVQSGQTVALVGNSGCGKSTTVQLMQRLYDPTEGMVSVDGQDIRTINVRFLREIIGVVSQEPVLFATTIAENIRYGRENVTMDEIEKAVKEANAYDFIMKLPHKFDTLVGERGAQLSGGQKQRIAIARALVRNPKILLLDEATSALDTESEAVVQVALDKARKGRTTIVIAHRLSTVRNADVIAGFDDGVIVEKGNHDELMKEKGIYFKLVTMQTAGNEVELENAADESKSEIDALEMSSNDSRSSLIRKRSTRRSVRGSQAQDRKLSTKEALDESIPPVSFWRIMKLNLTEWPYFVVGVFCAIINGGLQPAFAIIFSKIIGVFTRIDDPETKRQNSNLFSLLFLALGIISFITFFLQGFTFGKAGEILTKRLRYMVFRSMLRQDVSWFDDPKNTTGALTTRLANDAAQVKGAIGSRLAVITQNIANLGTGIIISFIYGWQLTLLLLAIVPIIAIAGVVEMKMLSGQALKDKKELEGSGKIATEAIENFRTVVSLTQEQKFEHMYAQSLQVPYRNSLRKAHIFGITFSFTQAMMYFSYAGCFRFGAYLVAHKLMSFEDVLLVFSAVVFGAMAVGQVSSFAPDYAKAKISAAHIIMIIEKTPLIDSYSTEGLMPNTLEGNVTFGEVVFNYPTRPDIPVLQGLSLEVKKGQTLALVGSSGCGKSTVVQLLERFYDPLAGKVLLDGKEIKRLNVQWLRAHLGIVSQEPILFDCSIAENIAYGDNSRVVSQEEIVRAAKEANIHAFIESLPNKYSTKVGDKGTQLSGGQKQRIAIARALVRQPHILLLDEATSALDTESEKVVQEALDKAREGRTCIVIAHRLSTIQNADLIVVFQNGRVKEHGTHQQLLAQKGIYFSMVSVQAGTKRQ
Procedure, shortened: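 MDR1-MDCK monolayers grown 80-96 h on transwell filters; compounds at 10 μM final (1% DMSO) incubated 90 min at 37 °C with shaking, in apical-to-basolateral and basolateral-to-apical directions. Donor and receiver samples quantified by LC-MS/MS; monolayer integrity checked with Lucifer Yellow. Permeability and efflux ratio calculated.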

[6] = Homo sapiens, HCT-116, WT BRAF, colon, read-out: HCT116 (WT) IC50
[7] = Homo sapiens, HCT-116, WT BRAF, read-out: HCT116 IC50
[8] = Mus musculus, B16-F10, WT BRAF, melanoma, read-out: B16F10 (WT) IC50
[9] = Mus musculus, B16-F10, WT BRAF, read-out: B16F10 IC50
[10] = Homo sapiens, SK-MEL-28, V600E BRAF

SMILES | IC50 [1, 6] | IC50 [1, 7] | IC50 [2, 8] | IC50 [2, 9] | IC50 [3, 10] | Kp at 60 min [4] | Papp A→B at 90 min, 10 µM [5] | Papp B→A at 90 min, 10 µM [5] | efflux ratio at 90 min, 10 µM [5] | Papp at 90 min, 10 µM [5] | IC50 ([1]; WT BRAF, read-out: HCT116 IC50) | IC50 ([2]; WT BRAF, read-out: B16F10 IC50) | IC50 ([3]; V600E BRAF) | ER (efflux ratio) [5] | Papp A-B [5] | Papp B-A [5] | Papp A-B ([5]; listed as 6-74) | Papp B-A ([5]; listed as 6-74) | ER (efflux ratio) ([5]; listed as dabrafenib)
CCCS(=O)(=O)Nc1cc(Cl)cc(-c2nc(C(C)(C)C)sc2-c2ccnc(N)n2)c1F [6-261, N-(3-(5-(2-aminopyrimidin-4-yl)-2-(tert-butyl)thiazol-4-yl)-5-chloro-2-fluorophenyl)propane-1-sulfonamide] | > 1 µM | > 1 µM | > 1 µM | > 1 µM | 0.00235 ± 0.00013 µM | 0.286 | 49.2 ± 8.06 nm/s | 64.2 ± 24.5 nm/s | 1.4 | 49 to 64 nm/s |  |  |  |  |  |  |  |  | 
CC(C)(C)c1nc(-c2cccc(NS(=O)(=O)c3c(F)cccc3F)c2F)c(-c2ccnc(N)n2)s1 [Dabrafenib, reference compound] |  |  |  |  |  |  |  |  |  |  | > 1 µM | > 1 µM | 0.00476 ± 0.00042 µM | 17.94 ± 6.97 | 12.6 ± 6.72 nm/s | 132 ± 16.3 nm/s | 12.57 ± 6.72 nm/s | 131.92 ± 16.32 nm/s | 17.9
CCCS(=O)(=O)Nc1cc(Cl)cc(-c2nc(C(C)(C)C)sc2-c2ccnc(NCCCCC(=O)O)n2)c1F [6-263, 5-((4-(2-(tert-butyl)-4-(5-chloro-2-fluoro-3-(propylsulfonamido)phenyl)thiazol-5-yl)pyrimidin-2-yl)amino)pentanoic acid] | 2.1 ± 0.456 µM | 2.1 ± 0.456 µM | > 10 µM | > 10 µM | 0.0225 ± 0.0012 µM | 0.0014 to 0.0069 | 21.5 ± 0.7 nm/s | 24.9 ± 4.35 nm/s | 1.17 | 22 to 25 nm/s |  |  |  |  |  |  |  |  | 
